For data set [1] the following is noted: cited from earlier work.
Data set [2] can be described thus: aqueous solubility at 22° C. It counts as physicochemical. The following applies: for solubility equivalent of APAP free acid: expressed as APAP free acid, approximately. The protocol: Accordingly, the sodium, lithium and calcium salts have solubilities equivalent to approximately 260-280, 250-270, and 10 mg/mL, respectively, of APAP free acid.
The nature of data set [3]: dissolution of APAP form (powder) in 0.1N hydrochloric acid, USP Dissolution Apparatus 2. As to conditions: paddle 50 rpm, 37° C. It counts as physicochemical. The protocol:
In 0.1N hydrochloric acid using USP Dissolution Apparatus 2 (paddle speed: 50 rpm) at 37° C., the concentration of acetaminophen at 30 seconds was as follows: […]

A further data set can be described thus: in vivo. Also noted: species or system dog (male purebred beagles). As to conditions: dog, po. The method, then: A study was conducted in dogs to determine the bioavailability of acetaminophen sodium. The free acid form of acetaminophen was used as the control. Compressed cylindrical pellets having the following composition were prepared:
Acetaminophen Sodium--compressed neat (no excipients). Control--150 mg APAP, 30 mg microcrystalline cellulose, and 30 mg dextrates.
Eight male purebred beagles having a body weight at initial dosing of approximately 9 to 14 kg were used in the study. The dogs were fed PMI® Certified Canine Diet Meal No. 5007 and water, both ab libitum. The dogs were fasted overnight for approximately 12 hours prior to dosing and food was returned 4 hours after dosing.
The dogs were divided into two groups and each group was dosed with either acetaminophen sodium or the control (free acid APAP) pellets. A single dose equivalent to 300 mg of acetaminophen free acid was administered via an oral gavage using a stomach tube. Each dose was followed by 20 mL of water. After a period of one week, the each group was dosed again, but with the other form of acetaminophen. Twelve blood samples were collected form each dog on each dosing day (1 prior to dosing and 11 thereafter). The plasma was separated and tested for acetaminophen.

The nature of data set [4]: stability of anionic form of APAP in aqueous solution. As to conditions: pH>11. In kind it is physicochemical. The protocol:
The lack of discussion on APAP salts in the scientific literature may be due in part to the fact that the anionic form of APAP is stable in aqueous solution (pH>11) for only a short period of time (<24 h). If the salt is not quickly isolated after formation, p-aminophenolate (PAP) can form and result in discoloration of the resulting product.

≈ marks a conversion by molar mass, not a printed value. Counter-ions that a name gives are not always drawn. Like-named read-outs stand apart in the source and are kept apart here.

As a reminder, the aqueous solubility is how much of the substance goes into solution per volume. Read a low aqueous solubility as a poorly soluble substance. In general, Tmax refers to the time from dosing to the highest level.

On to `CC(=O)Nc1ccc(OC(=O)CN)cc1` [APG-HBr, p-acetamidophenyl glycinate], for which the “water solubility, fold more soluble than acetaminophen” value in data set [1] (relative to acetaminophen) is on record as “five”.

In the case of `CC(=O)Nc1ccc(OC(=O)CC(N)C(=O)O)cc1` (stereo not drawn) [BAPA-HCl, β-p-acetamidophenyl aspartate], the “water solubility, fold less soluble than APAP” value in data set [1] (relative to APAP) is “four”. Regarding `CC(=O)Nc1ccc(O)cc1` [Calcium Salt, acetaminophen calcium], in data set [2], the aqueous solubility came to 13 mg/mL and the “solubility equivalent of APAP free acid” value is given as roughly 10 mg/mL. Also, in data set [3], the “concentration of acetaminophen at 30 seconds” value (from here on “concentration of acetaminophen”) is 0.20 Mg/mL of APAP.

In the case of `CC(=O)Nc1ccc(O)cc1` [Free Acid, acetaminophen], in data set [3], the “concentration of acetaminophen” value is reported as 0.02 Mg/mL of APAP.

Turning to `CC(=O)Nc1ccc(O)cc1` [I, acetaminophen sodium (C8 H8 NO2 Na.6H2 O)], in data set [2], the aqueous solubility was found to be 493 mg/mL. For `CC(=O)Nc1ccc(O)cc1` [II, acetaminophen sodium (C8 H8 NO2 Na.7H2 O)], in data set [2], the aqueous solubility turned out to be 541 mg/mL.

For the molecule `CC(=O)Nc1ccc(O)cc1` [III, acetaminophen calcium (C16 H16 N2 O4 Ca.2H2 O)], the aqueous solubility in data set [2] is recorded as 13 mg/mL. For the molecule `CC(=O)Nc1ccc(O)cc1` [IV, acetaminophen lithium (C8 H8 NO2 Li.6H2 O)], the aqueous solubility in data set [2] amounted to 455 mg/mL (≈ 3010 mM); in data set [2] (listed as Example V) it was 472 mg/mL (≈ 3120 mM).

Take `CC(=O)Nc1ccc(O)cc1` [Lithium Salt, acetaminophen lithium]: the “solubility equivalent of APAP free acid” value in data set [2] was 250 to 270 mg/mL. Besides, the “concentration of acetaminophen” value in data set [3] is given as 0.32 Mg/mL of APAP. As for `CC(=O)Nc1ccc(O)cc1` [Sodium Salt, acetaminophen sodium], the “solubility equivalent of APAP free acid” value in data set [2] lay within 260 to 280 mg/mL. Moreover, the “concentration of acetaminophen” value in data set [3] is recorded as 0.30 Mg/mL of APAP. In “in vivo”, the Tmax amounted to 16.2 ± 6 min. Regarding `CC(=O)Nc1ccc(O)cc1` [anionic form of APAP], in data set [4], the “stability in aqueous solution” value is reported as less than 24 h.

The record behind these values is patent US6160020A, “Alkali metal and alkaline-earth metal salts of acetaminophen” (priority 1998, dated 2000).
